Numbers after ± are expanded uncertainties.
Assay: xn = mol fraction of the nth substance listed
Conditions: 298.15 K; 101 kPa; Liquid; Sing-around technique in a fixed-path interferometer; x1 = 1

| SMILES | speed of sound |
| --- | --- |
| CCO [ethanol] + CCC[N+]1(C)CCCC1.O=S(=O)([N-]S(=O)(=O)C(F)(F)F)C(F)(F)F | 1143.9 ± 1.1 m/s |
| CCCO [propan-1-ol] + CCC[N+]1(C)CCCC1.O=S(=O)([N-]S(=O)(=O)C(F)(F)F)C(F)(F)F | 1206.6 ± 1.2 m/s |
| CO [methanol] + CCC[N+]1(C)CCCC1.O=S(=O)([N-]S(=O)(=O)C(F)(F)F)C(F)(F)F | 1102.7 ± 1.1 m/s |

Same assay, conditions: 298.15 K; 101 kPa; Liquid; Vibrating tube method; x1 = 1

| SMILES | mass density |
| --- | --- |
| CCO [ethanol] + CCC[N+]1(C)CCCC1.O=S(=O)([N-]S(=O)(=O)C(F)(F)F)C(F)(F)F | 785.48 ± 0.15 kg/m3 |
| CCCO [propan-1-ol] + CCC[N+]1(C)CCCC1.O=S(=O)([N-]S(=O)(=O)C(F)(F)F)C(F)(F)F | 799.87 ± 0.14 kg/m3 |
| CO [methanol] + CCC[N+]1(C)CCCC1.O=S(=O)([N-]S(=O)(=O)C(F)(F)F)C(F)(F)F | 786.66 ± 0.15 kg/m3 |

Same assay, conditions: 303.15 K; 101 kPa; Liquid; Sing-around technique in a fixed-path interferometer; x1 = 1

| SMILES | speed of sound |
| --- | --- |
| CCO [ethanol] + CCC[N+]1(C)CCCC1.O=S(=O)([N-]S(=O)(=O)C(F)(F)F)C(F)(F)F | 1128 ± 1.1 m/s |
| CCCO [propan-1-ol] + CCC[N+]1(C)CCCC1.O=S(=O)([N-]S(=O)(=O)C(F)(F)F)C(F)(F)F | 1189.5 ± 1.2 m/s |
| CO [methanol] + CCC[N+]1(C)CCCC1.O=S(=O)([N-]S(=O)(=O)C(F)(F)F)C(F)(F)F | 1086.3 ± 1.1 m/s |

Same assay, conditions: 303.15 K; 101 kPa; Liquid; Vibrating tube method; x1 = 1

| SMILES | mass density |
| --- | --- |
| CCO [ethanol] + CCC[N+]1(C)CCCC1.O=S(=O)([N-]S(=O)(=O)C(F)(F)F)C(F)(F)F | 781.16 ± 0.15 kg/m3 |
| CCCO [propan-1-ol] + CCC[N+]1(C)CCCC1.O=S(=O)([N-]S(=O)(=O)C(F)(F)F)C(F)(F)F | 795.94 ± 0.14 kg/m3 |
| CO [methanol] + CCC[N+]1(C)CCCC1.O=S(=O)([N-]S(=O)(=O)C(F)(F)F)C(F)(F)F | 781.95 ± 0.15 kg/m3 |

Same assay, conditions: 308.15 K; 101 kPa; Liquid; Sing-around technique in a fixed-path interferometer; x1 = 1

| SMILES | speed of sound |
| --- | --- |
| CCO [ethanol] + CCC[N+]1(C)CCCC1.O=S(=O)([N-]S(=O)(=O)C(F)(F)F)C(F)(F)F | 1111.8 ± 1.1 m/s |
| CCCO [propan-1-ol] + CCC[N+]1(C)CCCC1.O=S(=O)([N-]S(=O)(=O)C(F)(F)F)C(F)(F)F | 1172.4 ± 1.2 m/s |
| CO [methanol] + CCC[N+]1(C)CCCC1.O=S(=O)([N-]S(=O)(=O)C(F)(F)F)C(F)(F)F | 1070.1 ± 1.1 m/s |

Same assay, conditions: 308.15 K; 101 kPa; Liquid; Vibrating tube method; x1 = 1

| SMILES | mass density |
| --- | --- |
| CCO [ethanol] + CCC[N+]1(C)CCCC1.O=S(=O)([N-]S(=O)(=O)C(F)(F)F)C(F)(F)F | 776.81 ± 0.15 kg/m3 |
| CCCO [propan-1-ol] + CCC[N+]1(C)CCCC1.O=S(=O)([N-]S(=O)(=O)C(F)(F)F)C(F)(F)F | 791.78 ± 0.15 kg/m3 |
| CO [methanol] + CCC[N+]1(C)CCCC1.O=S(=O)([N-]S(=O)(=O)C(F)(F)F)C(F)(F)F | 777.2 ± 0.15 kg/m3 |

Assay: refractive index (Na D-line) (dimensionless); xn = mol fraction of the nth substance listed
Conditions: 298.15 K; 101 kPa; Liquid; Standard Abbe refractometry; x1 = 1

| SMILES | refractive index |
| --- | --- |
| CCO [ethanol] + CCC[N+]1(C)CCCC1.O=S(=O)([N-]S(=O)(=O)C(F)(F)F)C(F)(F)F | 1.35932 ± 0.00031 |
| CCCO [propan-1-ol] + CCC[N+]1(C)CCCC1.O=S(=O)([N-]S(=O)(=O)C(F)(F)F)C(F)(F)F | 1.38309 ± 0.00031 |
| CO [methanol] + CCC[N+]1(C)CCCC1.O=S(=O)([N-]S(=O)(=O)C(F)(F)F)C(F)(F)F | 1.3265 ± 0.00031 |

Same assay, conditions: 303.15 K; 101 kPa; Liquid; Standard Abbe refractometry; x1 = 1

| SMILES | refractive index |
| --- | --- |
| CCO [ethanol] + CCC[N+]1(C)CCCC1.O=S(=O)([N-]S(=O)(=O)C(F)(F)F)C(F)(F)F | 1.35728 ± 0.00031 |
| CCCO [propan-1-ol] + CCC[N+]1(C)CCCC1.O=S(=O)([N-]S(=O)(=O)C(F)(F)F)C(F)(F)F | 1.38106 ± 0.00031 |
| CO [methanol] + CCC[N+]1(C)CCCC1.O=S(=O)([N-]S(=O)(=O)C(F)(F)F)C(F)(F)F | 1.32452 ± 0.00031 |

Same assay, conditions: 308.15 K; 101 kPa; Liquid; Standard Abbe refractometry; x1 = 1

| SMILES | refractive index |
| --- | --- |
| CCO [ethanol] + CCC[N+]1(C)CCCC1.O=S(=O)([N-]S(=O)(=O)C(F)(F)F)C(F)(F)F | 1.35519 ± 0.00031 |
| CCCO [propan-1-ol] + CCC[N+]1(C)CCCC1.O=S(=O)([N-]S(=O)(=O)C(F)(F)F)C(F)(F)F | 1.37894 ± 0.00031 |
| CO [methanol] + CCC[N+]1(C)CCCC1.O=S(=O)([N-]S(=O)(=O)C(F)(F)F)C(F)(F)F | 1.32254 ± 0.00031 |

Assay: not given
Conditions: 298.15 K; 101 kPa; Liquid; Sing-around technique in a fixed-path interferometer

| SMILES | speed of sound |
| --- | --- |
| CCCO [propan-1-ol] | 1206.6 ± 1.2 m/s |
| CCO [ethanol] | 1143.9 ± 1.1 m/s |
| CO [methanol] | 1102.7 ± 1.1 m/s |

Same assay, conditions: 298.15 K; 101 kPa; Liquid; Vibrating tube method

| SMILES | mass density |
| --- | --- |
| CCCO [propan-1-ol] | 799.87 ± 0.14 kg/m3 |
| CCO [ethanol] | 785.48 ± 0.15 kg/m3 |
| CO [methanol] | 786.66 ± 0.15 kg/m3 |

Same assay, conditions: 303.15 K; 101 kPa; Liquid; Sing-around technique in a fixed-path interferometer

| SMILES | speed of sound |
| --- | --- |
| CCCO [propan-1-ol] | 1189.5 ± 1.2 m/s |
| CCO [ethanol] | 1128 ± 1.1 m/s |
| CO [methanol] | 1086.3 ± 1.1 m/s |

Same assay, conditions: 303.15 K; 101 kPa; Liquid; Vibrating tube method

| SMILES | mass density |
| --- | --- |
| CCCO [propan-1-ol] | 795.94 ± 0.14 kg/m3 |
| CCO [ethanol] | 781.16 ± 0.15 kg/m3 |
| CO [methanol] | 781.95 ± 0.15 kg/m3 |

Same assay, conditions: 308.15 K; 101 kPa; Liquid; Sing-around technique in a fixed-path interferometer

| SMILES | speed of sound |
| --- | --- |
| CCCO [propan-1-ol] | 1172.4 ± 1.2 m/s |
| CCO [ethanol] | 1111.8 ± 1.1 m/s |
| CO [methanol] | 1070.1 ± 1.1 m/s |

Same assay, conditions: 308.15 K; 101 kPa; Liquid; Vibrating tube method

| SMILES | mass density |
| --- | --- |
| CCCO [propan-1-ol] | 791.78 ± 0.15 kg/m3 |
| CCO [ethanol] | 776.81 ± 0.15 kg/m3 |
| CO [methanol] | 777.2 ± 0.15 kg/m3 |

Assay: refractive index (Na D-line) (dimensionless)
Conditions: 298.15 K; 101.33 kPa; Liquid; Standard Abbe refractometry

| SMILES | refractive index |
| --- | --- |
| CCCO [propan-1-ol] | 1.38309 ± 0.00031 |
| CCO [ethanol] | 1.35932 ± 0.00031 |
| CO [methanol] | 1.3265 ± 0.00031 |

Same assay, conditions: 303.15 K; 101.33 kPa; Liquid; Standard Abbe refractometry

| SMILES | refractive index |
| --- | --- |
| CCCO [propan-1-ol] | 1.38106 ± 0.00031 |
| CCO [ethanol] | 1.35728 ± 0.00031 |
| CO [methanol] | 1.32452 ± 0.00031 |

Same assay, conditions: 308.15 K; 101.33 kPa; Liquid; Standard Abbe refractometry

| SMILES | refractive index |
| --- | --- |
| CCCO [propan-1-ol] | 1.37894 ± 0.00031 |
| CCO [ethanol] | 1.35519 ± 0.00031 |
| CO [methanol] | 1.32254 ± 0.00031 |

From the NIST ThermoML archive (doi:10.1016/j.jct.2013.08.021)
